# Measured values taken from patent publication US20100119483A1, “PEPTIDE VIRAL ENTRY INHIBITORS” (Schering Corporation, priority 2004, published 2010).
# Where “and” joins values, the source holds several entries; their conditions need not be identical. Equal entries are not always repeated.
# Test system: HCV pseudoparticles
# Assay: HCV pseudoparticle (HCVpp) entry assay in Huh7 hepatoma cells, luciferase readout
# Type: cell-based, hepatitis C virus
# Settings: for % of control at ~30 uM: percentage of hepatitis C virus cellular entry at 30 μM peptide vs uninhibited control; for viral entry as a percentage of the uninhibited control: HCV entry, duplicates; for activity compared to the wild type 13-mer peptide: HCVpp entry inhibition, in words
# Procedure: HCV pseudotype particle generation. Single cycle HCV pseudoparticles are composed of a replication-defective HIV genome and HCV envelope proteins. These pseudoparticles were made by transfecting 293T cells with 5 ug of each pNL43E-R-luc (Chen et al., J. Virol. 68(2):654-60 (1994)) and plasmid expressing HCV envelope proteins pCMV/E1-2 with profection transfection kit from Promega (Madison, Wis.). The medium was refreshed 12-24 hours after transfection and supernatant was collected 48 hours after transfection. The supernatant from a transfection of only pNL43E-R-luc was used each time as a control for non specific entry events.
# Infection of hepatoma cell lines with HCV pseudotype particles and screen for inhibitory peptides. The hepatoma cells, Huh7, was seeded at 8000 cells in 90 ul medium in 96-well plate. In the case of the inhibitor screen, the inhibitor was incubated with cells for one hour at 37° C. and then 50 ul viral supernatant was added to the cells 24 hours after seeding. The viral stock was pre-tittered and diluted to yield approximately 10,000 to 20,000 RLU. The cells were incubated at 37° C. with 5% CO2 for additional 72 hours and were harvested for luciferase assay. Peptide stocks were prepared in 100% DMSO at 10 mg/ml and were first screened at 100 ug/ml and then a dose responsive curve was generated with 10 points 3-fold titration starting from 100 ug/ml.
# The peptide of SEQ ID NO: 77 was first serial diluted by the factor of 3 in 100% DMSO from 100 ug/ml and then transferred to the assay plates at 100-fold dilution. The peptide was first incubated with cells and HCVpp (A) or HIVpp (B), respectively, for 30 minutes at […] in this experiment. Then, the medium containing the peptide was removed from the cells and virus with peptide was added to the cells. Cells were incubated for 72 hours and then were harvested for luciferase assay. Two separate trials were performed.
# In addition, the peptide of SEQ ID NO: 77 was mutated at several positions and assayed in the HCV entry assay discussed above. […] The assays were performed essentially as described above.
# [1] = 0.1 nM of peptide (printed for three rows), two values per peptide and row
# [2] = 0.3 nM of peptide, two values per peptide
# [3] = 1 nM of peptide, two values per peptide
# [4] = 3 nM of peptide, two values per peptide
# [5] = 10 nM of peptide, two values per peptide
# [6] = 30 nM of peptide, two values per peptide
# [7] = 100 nM of peptide, two values per peptide
# [8] = 300 nM of peptide, two values per peptide
# [9] = 10000 nM of peptide, two values per peptide
# [10] = 30000 nM of peptide, two values per peptide
# [11] = 0.1 nM of peptide (three lines)
substance,measurement,setting,value
"A-I-K-W-A-Y-V-L-L-L-F-L-L (AIKWAYVLLLFLL; HCV peptide) [SEQ ID NO: 90, Ala-scan]","% control (HCVpp entry), alanine scanning",[1],105 % control and 98 % control and 82 % control and 106 % control and 116 % control and 96 % control
same,"% control (HCVpp entry), alanine scanning",[2],73 % control and 94 % control
same,"% control (HCVpp entry), alanine scanning",[3],66 % control and 98 % control
same,"% control (HCVpp entry), alanine scanning",[4],106 % control and 81 % control
same,"% control (HCVpp entry), alanine scanning",[5],66 % control and 46 % control
same,"% control (HCVpp entry), alanine scanning",[6],69 % control and 63 % control
same,"% control (HCVpp entry), alanine scanning",[7],51 % control and 43 % control
same,"% control (HCVpp entry), alanine scanning",[8],55 % control
same,% of control at ~30 uM,,13%
"A-I-K-W-E-Y-V-L-L-L-F-A-L (AIKWEYVLLLFAL; HCV peptide) [SEQ ID NO: 96, Ala-scan]","% control (HCVpp entry), alanine scanning",[1],95 % control and 86 % control and 100 % control and 96 % control and 72 % control and 132 % control
same,"% control (HCVpp entry), alanine scanning",[2],91 % control and 98 % control
same,"% control (HCVpp entry), alanine scanning",[3],124 % control and 78 % control
same,"% control (HCVpp entry), alanine scanning",[4],76 % control and 85 % control
same,"% control (HCVpp entry), alanine scanning",[5],58 % control and 73 % control
same,"% control (HCVpp entry), alanine scanning",[6],63 % control and 67 % control
same,"% control (HCVpp entry), alanine scanning",[7],24 % control and 41 % control
same,"% control (HCVpp entry), alanine scanning",[8],36 % control and 26 % control
same,"% control (HCVpp entry), alanine scanning",[9],33 % control and 20 % control
same,"% control (HCVpp entry), alanine scanning",[10],31 % control
same,% of control at ~30 uM,,24%
A-I-K-W-E-Y-V-L-L-L-F-L-K [SEQ ID NO: 137],"% control (HCVpp entry), lysine scanning",[1],72 % control and 123 % control and 80 % control and 82 % control and 103 % control and 135 % control
same,"% control (HCVpp entry), lysine scanning",[2],58 % control and 92 % control
same,"% control (HCVpp entry), lysine scanning",[3],80 % control and 106 % control
same,"% control (HCVpp entry), lysine scanning",[4],82 % control and 97 % control
same,"% control (HCVpp entry), lysine scanning",[5],100 % control and 89 % control
same,"% control (HCVpp entry), lysine scanning",[6],78 % control and 94 % control
same,"% control (HCVpp entry), lysine scanning",[7],68 % control and 74 % control
same,"% control (HCVpp entry), lysine scanning",[8],54 % control and 77 % control
same,"% control (HCVpp entry), lysine scanning",[9],23 % control and 28 % control
"A-A-K-W-E-Y-V-L-L-L-F-L-L (AAKWEYVLLLFLL; HCV peptide) [SEQ ID NO: 87, Ala-scan]","% control (HCVpp entry), alanine scanning",[1],90 % control and 108 % control and 113 % control and 93 % control and 104 % control
same,"% control (HCVpp entry), alanine scanning",[2],84 % control and 75 % control
same,"% control (HCVpp entry), alanine scanning",[3],110 % control and 93 % control
same,"% control (HCVpp entry), alanine scanning",[4],92 % control and 68 % control
same,"% control (HCVpp entry), alanine scanning",[5],45 % control and 57 % control
same,"% control (HCVpp entry), alanine scanning",[6],42 % control and 51 % control
same,"% control (HCVpp entry), alanine scanning",[7],19 % control and 15 % control
same,"% control (HCVpp entry), alanine scanning",[8],16 % control and 13 % control
same,"% control (HCVpp entry), alanine scanning",[9],15 % control and 23 % control
same,"% control (HCVpp entry), alanine scanning",[10],11 % control and 6 % control
same,% of control at ~30 uM,,14%
LLFLLLVYEWKIA [retro-inverso],viral entry as a percentage of the uninhibited control,[11],97%
same,viral entry as a percentage of the uninhibited control,"0.3 nM of peptide, 0.0003 µM",91% and 81% and 74% and 99% and 126% and 117%
same,viral entry as a percentage of the uninhibited control,"1 nM of peptide, 0.001 µM",83% and 72% and 91% and 115% and 106%
same,viral entry as a percentage of the uninhibited control,"3 nM of peptide, 0.003 µM",88% and 68% and 78% and 92% and 86% and 98%
same,viral entry as a percentage of the uninhibited control,"10 nM of peptide, 0.01 µM",66% and 100% and 76% and 84% and 128% and 104%
same,viral entry as a percentage of the uninhibited control,"30 nM of peptide, 0.03 µM",68% and 62% and 76% and 113% and 121% and 110%
same,viral entry as a percentage of the uninhibited control,"30000 nM of peptide, 30 µM",107% and 87% and 103% and 125% and 95%
same,activity compared to the wild type 13-mer peptide,,completely lost activity
LLFLLLVYEWKIA [retro],viral entry as a percentage of the uninhibited control,[11],90%
same,viral entry as a percentage of the uninhibited control,"0.1 nM of peptide (three lines), 0.0001 µM",107%
same,viral entry as a percentage of the uninhibited control,"0.3 nM of peptide, 0.0003 µM",88% and 98% and 86% and 95% and 91%
same,viral entry as a percentage of the uninhibited control,"1 nM of peptide, 0.001 µM",94% and 86% and 97% and 81% and 51% and 88%
same,viral entry as a percentage of the uninhibited control,"3 nM of peptide, 0.003 µM",62% and 99% and 121% and 76% and 77% and 66%
same,viral entry as a percentage of the uninhibited control,"10 nM of peptide, 0.01 µM",52% and 95% and 93% and 81% and 68% and 77%
same,viral entry as a percentage of the uninhibited control,"100 nM of peptide, 0.1 µM",72% and 101% and 79% and 99% and 65% and 62%
same,viral entry as a percentage of the uninhibited control,"30000 nM of peptide, 30 µM",104% and 110% and 73% and 90% and 96% and 80%
same,activity compared to the wild type 13-mer peptide,,completely lost activity
A-I-K-W-E-Y-V-L-L-K-F-L-L (AIKWEYVLLKFLL; HCV peptide) [SEQ ID NO: 134],"% control (HCVpp entry), lysine scanning",[1],80 % control and 96 % control and 108 % control and 75 % control and 138 % control and 79 % control
same,"% control (HCVpp entry), lysine scanning",[2],104 % control and 85 % control
same,"% control (HCVpp entry), lysine scanning",[3],128 % control and 81 % control
same,"% control (HCVpp entry), lysine scanning",[4],94 % control and 92 % control
same,"% control (HCVpp entry), lysine scanning",[5],105 % control and 77 % control
same,"% control (HCVpp entry), lysine scanning",[6],101 % control and 76 % control
same,"% control (HCVpp entry), lysine scanning",[7],89 % control and 87 % control
same,"% control (HCVpp entry), lysine scanning",[8],75 % control and 68 % control
same,"% control (HCVpp entry), lysine scanning",[9],60 % control and 47 % control
same,"% control (HCVpp entry), lysine scanning",[10],56 % control and 45 % control
F-A-I-K-W-E-Y-V-L-L-L-F-L-L [SEQ ID NO: 105],HCVpp % inh,truncated peptides tested at 50 uM in 1% DMSO,95%
"A-I-K-W-G-Y-V-L-L-L-F-L-L (AIKWGYVLLLFLL; HCV peptide) [SEQ ID NO: 84, Gly-scan]","% control (HCVpp entry), glycine scanning","0.00003 uM of peptide, two values per peptide and row",118 % control and 84 % control and 87 % control and 110 % control
same,"% control (HCVpp entry), glycine scanning","0.0001 uM of peptide, two values per peptide",62 % control and 75 % control
same,"% control (HCVpp entry), glycine scanning","0.0003 uM of peptide, two values per peptide",91 % control and 81 % control
same,"% control (HCVpp entry), glycine scanning","0.001 uM of peptide, two values per peptide",74 % control and 73 % control
same,"% control (HCVpp entry), glycine scanning","0.003 uM of peptide, two values per peptide",70 % control
same,"% control (HCVpp entry), glycine scanning","0.01 uM of peptide, two values per peptide",72 % control and 53 % control
same,"% control (HCVpp entry), glycine scanning","0.03 uM of peptide, two values per peptide",62 % control and 52 % control
same,"% control (HCVpp entry), glycine scanning","0.1 uM of peptide, two values per peptide",41 % control and 39 % control
same,"% control (HCVpp entry), glycine scanning","0.3 uM of peptide, two values per peptide",37 % control and 57 % control
same,"% control (HCVpp entry), glycine scanning","30 uM of peptide, two values per peptide",22 % control and 38 % control
same,% of control at ~30 uM,,19%
A-I-K-W-E-K-V-L-L-L-F-L-L (AIKWEKVLLLFLL; HCV peptide) [SEQ ID NO: 130],"% control (HCVpp entry), lysine scanning",[1],122 % control and 84 % control and 106 % control and 96 % control and 105 % control and 93 % control
same,"% control (HCVpp entry), lysine scanning",[2],103 % control and 100 % control
same,"% control (HCVpp entry), lysine scanning",[3],114 % control and 89 % control
same,"% control (HCVpp entry), lysine scanning",[4],95 % control and 81 % control
same,"% control (HCVpp entry), lysine scanning",[5],90 % control and 102 % control
same,"% control (HCVpp entry), lysine scanning",[6],74 % control and 75 % control
same,"% control (HCVpp entry), lysine scanning",[8],33 % control and 19 % control
A-I-K-W-E-Y-V-L-L-L-K-L-L (AIKWEYVLLLKLL; HCV peptide) [SEQ ID NO: 135],"% control (HCVpp entry), lysine scanning",[2],72 % control and 99 % control
same,"% control (HCVpp entry), lysine scanning",[3],76 % control and 84 % control
same,"% control (HCVpp entry), lysine scanning",[4],67 % control and 74 % control
same,"% control (HCVpp entry), lysine scanning",[5],79 % control and 104 % control
same,"% control (HCVpp entry), lysine scanning",[6],90 % control and 89 % control
same,"% control (HCVpp entry), lysine scanning",[7],75 % control and 107 % control
same,"% control (HCVpp entry), lysine scanning",[8],87 % control and 70 % control
same,"% control (HCVpp entry), lysine scanning",[9],57 % control and 43 % control
same,"% control (HCVpp entry), lysine scanning",[10],37 % control and 29 % control
